Laboratory results reported in US6451853B1, “Small molecules that elicit a polarized Th1 response and for modulation of cellular immunity” (Dovetail Technologies, Inc, priority 1998, dated 2002).
Several values for one entry are separate records, joined by “and”; a condition that tells them apart may be missing. Equal values may be shown once. Read-outs that look alike come from different tables or passages of the source.

How the values were obtained:
[1] = tested on: Cytokine mRNA from T cells (PBMC); assay: RNase protection assay of cytokine mRNA in PBMC (T cells), with or without PMA/ionomycin; details: for PMA/ionomycin-induced upregulation of TNF alpha message: PMA/ionomycin stimulation
[2] = tested on: panel of human T-cell lines; assay: Surface TNF alpha expression on a panel of human T-cell lines; assay type: cell-based; details: data not shown
HL60 targets = assay: T cell-dependent cytotoxicity toward HL60 targets (MTT reduction assay)
in vivo = details: both, CD-1, mouse, iv
[3] = tested on: surface TNF alpha on human monocytes; assay: Surface TNF alpha expression on monocytes by FACS (CD14+ cells); assay type: cell-based; parameters: TNF alpha from Monocytes, With BT / change with BT versus without BT: unit not given here; details: for TNF alpha from Monocytes, With BT / change with BT versus without BT: 20 mM BT; for surface TNF alpha expression: all drugs 20 mM
From the text: The effect of NAC and BT, alone or in combination, on surface TNF alpha expression by stimulated or unstimulated monocytes (prepared from PBM) was examined. […] Table 6. While only a small proportion of T cells from each donor were responsive to the combination NAC/BT, the effect on surface TNF alpha expression in monocytes was significant.

[4] = tested on: surface TNF alpha on human T cells; assay: Surface TNF alpha expression on T cells by FACS (gating on CD3+ cells); details: for Change in with BT/without BT: 20 mM BT; for % Positive ± SD (T cells expressing high levels of surface TNF alpha) / MFI ± SD: PMA/ionomycin; for surface TNF alpha, overall MFI: With BT 20 mM; for surface TNF alpha level: unstimulated T cells, BT alone 20 mM, single donor
[5] = tested on: Monocyte Chemokine Message levels; assay: RNase protection assay of monocyte chemokine message levels; assay type: cell-based, human; details: Media + beta-alethine 20 mM; RPA phosphorimaging normalized on L32
Protocol: Monocyte expression of chemokines was also assessed in beta-alethine-treated cells (Table 3). While IP-10 expression was decreased by beta-alethine, the levels of the chemoattractants MIP-1a and IL-8 were increased slightly. Bacterial infections are contained by an inflammatory response. MIP-1a recruits macrophages, T cells and eosinophils to the infection site, and IL-8 recruits neutrophils. Therefore both of these chemokines are important in fighting pathogen-induced infections.

[6] = tested on: soluble TNF alpha release from human lymphocytes; assay: Soluble TNF alpha in supernatants by ELISA; details: Media (unstimulated); drugs 20 mM; ELISA standard curve in pg/mL, unit not given
CD-1 mice = details: for Mortality: CD-1 mice
[7] = tested on: TNF-R I on T cells (PBMCs); assay: TNF receptor I expression on T cells by FACS
[8] = BT 27 nM, no stimulation, 6 hours
[9] = BT 2.7 uM, no stimulation, 6 hours
[10] = BT 20 mM, no stimulation, 6 hours
[11] = Media (no stimulation), individual donors/dates
[12] = Stimulation, individual donors/dates
[13] = stimulation 1 micromolar Ionomycin and 10 ng/ml PMA, 48 hrs
[14] = stimulation 1 micromolar Ionomycin and 10 ng/ml PMA, individual donors/dates

NCCC(=O)NCCSSCCNC(=O)CCN [BT, beta-alethine]
% Change GAPDH mRNA [1, 8]: −10.95%
% Change IFNg mRNA [1, 8]: 21.11%
% Change LTb mRNA [1, 8]: 27.48%
% Change TGFb1 mRNA [1, 8]: 26.69%
% Change TNFa mRNA [1, 8]: 10.04%
% Change TNFb mRNA [1, 8]: 42.88%
% Change GAPDH mRNA [1, 9]: −4.78%
% Change IFNg mRNA [1, 9]: 20.17%
% Change LTb mRNA [1, 9]: 25.70%
% Change TGFb1 mRNA [1, 9]: 42.15%
% Change TNFa mRNA [1, 9]: 24.94%
% Change TNFb mRNA [1, 9]: 220.87%
% Change IFNg mRNA [1, 10]: 109.71% and 94.74% and 139.51%
% Change IL-1Ra mRNA [1, 10]: 30.84%
% Change IL-1a mRNA [1, 10]: 9.07%
% Change IL-1b mRNA [1, 10]: 60.09%
% Change IL-2 mRNA [1, 10]: 95.02%
% Change IL-4 mRNA [1, 10]: 135.82%
% Change IL-5 mRNA [1, 10]: 161.15%
% Change IL-8 mRNA [1, 10]: 10.65%
% Change IL-9 mRNA [1, 10]: 22.86%
% Change IL-13 mRNA [1, 10]: 83.76%
% Change IL-15 mRNA [1, 10]: 4.88%
% Change LTN* mRNA [1, 10]: 58.25%
% Change LTb mRNA [1, 10]: 117.13%
% Change MIP-1 alpha mRNA [1, 10]: 25.98%
% Change MIP-1 beta mRNA [1, 10]: −4.79%
% Change RANTES mRNA [1, 10]: −2.09%
% Change TGFb1 mRNA [1, 10]: 82.08%
% Change TNFa mRNA [1, 10]: 168.85%
% Change TNFb mRNA [1, 10]: 77.91%
ratio of TNF alpha: TGF beta message (densitometry) ([1]; PMA/ionomycin + 20 mM BT (PMA/ionomycin alone 3.61)): 7.12
PMA/ionomycin-induced upregulation of TNF alpha message ([1]; 2.7 mM BT, 6 hours): maintained
PMA/ionomycin-induced upregulation of TNF alpha message ([1]; 20 mM BT, 6 hours): further enhanced
ratio of TNF alpha: TGF beta message (densitometry) ([1]; media + 20 mM BT (media alone 0.092)): 1.36
surface TNF alpha expression [2]: induced upregulation
T cell dependent cytotoxic activity toward HL60 in the presence of neutralizing anti-TNF alpha antibodies (HL60 targets; 20 mM BT, PMA/ionomycin stimulated, data not shown): inhibited
T cell-Mediated Cytotoxicity, optical density at 540 nm ± SD (HL60 targets; PMA/ionomycin-stimulated T cells, 0.85 mM, 10:1 effector:target, 24 hours): .191 ± .003
LD50 at 2 weeks (in vivo): > 100 mg/kg
TNF alpha from Monocytes, With BT ([3]; Media (no stimulation), 48 hrs): 14.22
change with BT versus without BT ([3]; Media (no stimulation), 48 hrs): 0.07037
TNF alpha from Monocytes, With BT [3, 11]: 124.26 and 10.53 and 24.06
change with BT versus without BT [3, 11]: 78.87 and −44.17 and 18.58
TNF alpha from Monocytes, With BT ([3]; Stimulation, 48 hrs): 34.59
change with BT versus without BT ([3]; Stimulation, 48 hrs): −6.107
TNF alpha from Monocytes, With BT [3, 12]: 71.42 and 202.15 and 41.97 and 143.51 and 87.59
change with BT versus without BT [3, 12]: 11.54 and 249.1 and −52.59 and 126.7 and 127.7
surface TNF alpha expression ([3]; stimulated monocytes): induced significant surface TNF alpha expression
surface TNF alpha expression ([3]; unstimulated monocytes): not upregulated
Change in with BT/without BT [4, 13]: 84.527%
Change in with BT/without BT [4, 14]: 45.223% and 66.236% and 49.403% and 71.042% and 4.276% and 68.647% and 152.007% and 27.185% and 104.690% and 325.647%
% Positive ± SD (T cells expressing high levels of surface TNF alpha) ([4]; Dose 2.7 mM, 16 hours): 10.86 ± .92%
MFI ± SD ([4]; Dose 2.7 mM, 16 hours): 94.52 ± 1.83
% Positive ± SD (T cells expressing high levels of surface TNF alpha) ([4]; Dose 20 mM, 16 hours): 24.25 ± 6.25%
MFI ± SD ([4]; Dose 20 mM, 16 hours): 127.37 ± 12.5
% Positive ± SD (T cells expressing high levels of surface TNF alpha) ([4]; Dose .0085 mM, 16 hours): 4.96 ± .41%
MFI ± SD ([4]; Dose .0085 mM, 16 hours): 59.84 ± 4.08
% Positive ± SD (T cells expressing high levels of surface TNF alpha) ([4]; Dose .027 mM, 16 hours): 5.18 ± 1.73%
MFI ± SD ([4]; Dose .027 mM, 16 hours): 63.49 ± .28
% Positive ± SD (T cells expressing high levels of surface TNF alpha) ([4]; Dose .085 mM, 16 hours): 8.4 ± .5%
MFI ± SD ([4]; Dose .085 mM, 16 hours): 74.18 ± 7.98
% Positive ± SD (T cells expressing high levels of surface TNF alpha) ([4]; Dose .27 mM, 16 hours): 7.33 ± .38%
MFI ± SD ([4]; Dose .27 mM, 16 hours): 71.17 ± .77
% Positive ± SD (T cells expressing high levels of surface TNF alpha) ([4]; Dose .85 mM, 16 hours): 9.38 ± 1.57%
MFI ± SD ([4]; Dose .85 mM, 16 hours): 81.93 ± 6.33
time for which increased surface TNF alpha expression was sustained ([4]; PMA/ionomycin-stimulated cells): over 50 hours
surface TNF alpha expression, Time Course ([4]; Pma/iono, 6 hours, 2.7 mM): 149
surface TNF alpha expression, Time Course ([4]; Pma/iono, 6 hours, each drug 20 mM): 112
surface TNF alpha expression, Time Course ([4]; Pma/iono, 16 hours, 2.7 mM): 179
surface TNF alpha expression, Time Course ([4]; Pma/iono, 16 hours, each drug 20 mM): 220
surface TNF alpha expression, Time Course ([4]; Pma/iono, 24 hours, 2.7 mM): 208
surface TNF alpha expression, Time Course ([4]; Pma/iono, 24 hours, each drug 20 mM): 226
surface TNF alpha expression, Time Course ([4]; Pma/iono, 42 hours, 2.7 mM): 120
surface TNF alpha expression, Time Course ([4]; Pma/iono, 42 hours, each drug 20 mM): 247
surface TNF alpha expression, Time Course ([4]; Pma/iono, 68 hours, 2.7 mM): 64
surface TNF alpha expression, Time Course ([4]; Pma/iono, 68 hours, each drug 20 mM): 174
surface TNF alpha, overall MFI [4, 13]: 146.81
surface TNF alpha, overall MFI [4, 14]: 164.48 and 83.65 and 123.87 and 25.93 and 48.53 and 105.59 and 435.04 and 25.17 and 508.43 and 292.59
surface TNF alpha, overall MFI ([4]; stimulation with 1 ng PMA, individual donors): 133.13 and 25.41
surface TNF alpha level ([4]; 15 hours post-exposure (control 25)): 75
surface TNF alpha level ([4]; forty hours (control 25)): 100
surface TNF alpha expression, Time Course ([4]; unstimulated, 6 hours, 2.7 mM): 22
surface TNF alpha expression, Time Course ([4]; unstimulated, 6 hours, each drug 20 mM): 32
surface TNF alpha expression, Time Course ([4]; unstimulated, 16 hours, 2.7 mM): 42
surface TNF alpha expression, Time Course ([4]; unstimulated, 16 hours, each drug 20 mM): 76
surface TNF alpha expression, Time Course ([4]; unstimulated, 24 hours, 2.7 mM): 47
surface TNF alpha expression, Time Course ([4]; unstimulated, 24 hours, each drug 20 mM): 67
surface TNF alpha expression, Time Course ([4]; unstimulated, 42 hours, 2.7 mM): 79
surface TNF alpha expression, Time Course ([4]; unstimulated, 42 hours, each drug 20 mM): 101
surface TNF alpha expression, Time Course ([4]; unstimulated, 68 hours, 2.7 mM): 30
surface TNF alpha expression, Time Course ([4]; unstimulated, 68 hours, each drug 20 mM): 41
IL-8 message level [5]: 11,615,894
IP-10 message level [5]: 55,214
MIP-1 alpha message level [5]: 909,291
MIP-1 beta message level [5]: 554,709
Soluble TNF [6]: 29
gross pathology at necropsy (CD-1 mice; mouse, in vivo): No gross pathology
Mortality (CD-1 mice; single bolus intravenous dose 67 mg/kg): 0/2
Mortality (CD-1 mice; single bolus intravenous dose 333 mg/kg): 1/3
Mortality (CD-1 mice; single bolus intravenous dose 667 mg/kg): 2/2
TNF Receptor I Expression (mean fluorescent channel) ([7]; PMA/ionomycin + 20 mM BT, 20 hours): 329
TNF Receptor I Expression (mean fluorescent channel) ([7]; PMA/ionomycin + 20 mM BT, 45 hours): 548
TNF Receptor I Expression (mean fluorescent channel) ([7]; PMA/ionomycin + 20 mM BT, 69 hours): 489
TNF Receptor I Expression (mean fluorescent channel) ([7]; unstimulated, 20 mM BT, 20 hours): 136
TNF Receptor I Expression (mean fluorescent channel) ([7]; unstimulated, 20 mM BT, 45 hours): 109
TNF Receptor I Expression (mean fluorescent channel) ([7]; unstimulated, 20 mM BT, 69 hours): 96
